pKd: −log10 of the molar value.
Tests used:
apo-POD [1] = molecular target: T1, apo-POD (Armoracia rusticana, UniProt P00433); assay: Metal porphyrin study: reactivation of apo-peroxidase (Example IV); type: biochemical, horse radish; settings: for % R @ 90 second read time on CLINITEK-200+, mean: 12 μM apo-POD, HEMASTIX no lepidine/pH 7.5
T1 construct: purchased Sigma Chemical Company, St. Louis, Mo
T1 sequence (P00433 31-353): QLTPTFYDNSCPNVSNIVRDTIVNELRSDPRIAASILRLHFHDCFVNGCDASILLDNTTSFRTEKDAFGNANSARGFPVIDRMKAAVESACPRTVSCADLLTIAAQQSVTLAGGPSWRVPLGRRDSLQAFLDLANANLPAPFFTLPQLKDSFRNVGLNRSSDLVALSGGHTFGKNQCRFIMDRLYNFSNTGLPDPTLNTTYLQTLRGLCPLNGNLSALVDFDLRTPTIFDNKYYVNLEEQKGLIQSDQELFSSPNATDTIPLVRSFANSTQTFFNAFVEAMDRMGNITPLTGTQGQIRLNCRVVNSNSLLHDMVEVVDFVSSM
Procedure: (§1) In this example, other metal porphyrins were tested for their ability to reactivate different types of apo-peroxidases. Metals such as Fe, Cu, Mg, Zn, Ni, Mn, Co and Pd were complexed to hematin and added to the peroxidase detecting agent. Metals such as Mn, Fe, Cu and Co and porphyrins other than hematin, i.e. deuteroporphyrin and coproporphyrin were also shown to provide the desired response.

[2] = Metal porphyrin study: metal porphyrin in water without apo-enzyme (Example IV); type: biochemical; settings: HEMASTIX no lepidine/pH 7.5
Procedure: as §1

apo-POD [3] = molecular target: T1, apo-POD; assay: Interference study with peroxidase detecting dry reagent (Example III); type: biochemical, horse radish; settings: hemoglobin/myoglobin: reagent without modification; ascorbate: system with ascorbate scavenger
Procedure: In this example, a peroxidase detecting dry reagent with resistance to 0.81 mg/dL hemoglobin (or myoglobin) and 25 mg/dL ascorbate and sufficient sensitivity to detect apo-peroxidase reactivation was used. […]
The reagent was tested by dipping it into solutions containing the interfering substance with and without Fe hematin. […]

apo-POD [4] = molecular target: T1, apo-POD; assay: Detection limit study: peroxidase activity / apo-POD reactivation read with HEMASTIX reagent (Example I); type: biochemical, horse radish; settings: for peroxidase activity (in words): 3.6 nM
Procedure: In this example apo-peroxidase is compared to hematin and hematin-antigen conjugates to determine the detectable concentrations and effects of conjugation and antigen molecular weight on apo-enzyme reactivations. Solutions containing combinations of apo-POD, Fe^+3 hematin and hematin conjugate were tested for peroxidase activity. Peroxidase activity was measured in urine using HEMASTIX® reagent as set out in Table 3. This reagent is similar to that set out in Table 1 but lacking the metal porphyrin conjugate, competitive binder and apo-peroxidase while containing lepidine as an activator.
A 10 μL portion of hematin (3.6 μM, 0.23 mg/dL in phosphate buffered saline) or a 10 μL hematin-BJP allotment (3.6 μM, 8.61 mg/dL in phosphate buffered saline) was mixed with 10 μL apo-POD (3.6 μM, 14.0 mg/dL in phosphate buffered saline) all in 980 μL of phosphate buffered saline and then diluted to the desired concentration with additional phosphate buffered saline. The solution was incubated for 1 minute at 40° C. or at room temperature. The response of HEMASTIX® reagent dipped into the test solution was measured on a CLINITEK™-200 reflectance instrument. The response of the reagent set out in Table 1 on the phosphate buffered solution alone was 65.2% reflectance at 1 minute.
Apo-horse radish peroxidase was obtained from Sigma Chemical Company of St. Louis, Mo. The phosphate buffered solution was prepared by adding 0.69 g monobasic sodium phosphate, 0.71 g of dibasic sodium phosphate and 0.45 g of sodium chloride to 100 mL of water.
The HEMASTIX® reagent referred to earlier with the addition of lepidine and at a lower pH when compared to the formula of Table 1 was applied to the strip in a two dip system of the following composition and used in Examples I to IV (Table 3).

apo-peroxidase = molecular target: T2, apo-peroxidase (Armoracia rusticana, UniProt P00433); assay: Proximity effect: antibody binding of hematin-antigen conjugate prevents apo-enzyme reactivation (Example II); type: biochemical, horse radish; settings: phosphate buffered saline solution containing hematin alone, 1 minute
T2 construct: purchased Sigma Chemical Company, St. Louis, Mo
T2 sequence (P00433 31-353): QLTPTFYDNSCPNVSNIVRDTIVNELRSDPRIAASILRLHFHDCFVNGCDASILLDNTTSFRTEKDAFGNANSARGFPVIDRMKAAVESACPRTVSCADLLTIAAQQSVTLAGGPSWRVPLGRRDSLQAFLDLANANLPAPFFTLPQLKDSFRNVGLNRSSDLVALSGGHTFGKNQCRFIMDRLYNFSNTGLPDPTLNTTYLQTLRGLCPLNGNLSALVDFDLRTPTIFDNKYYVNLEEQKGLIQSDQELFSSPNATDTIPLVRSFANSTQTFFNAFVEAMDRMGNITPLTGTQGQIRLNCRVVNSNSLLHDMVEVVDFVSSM
Procedure: A 10 μL sample of hematin-BJP^1 (3.6 μM, 8.61 mg/dL in phosphate buffered saline), anti-BJP (3.6 μM, 52.56 mg/dL in PBS) and BJP (3.6 μM, 8.28 mg/dL in phosphate buffered saline) were mixed with 10 μL apo-POD (3.6 μM, 14.0 mg/dL in phosphate buffered saline) and […] phosphate buffered saline. The solution was incubated for 5 to 10 minutes at room temperature and the response to HEMASTIX® reagent dipped in the test solution was measured using a CLINITEK®-200 instrument. The response of HEMASTIX® reagent with the phosphate buffered saline solution containing hematin alone was 65.7% reflectance at 1 minute. Sheep anti-human BJP monoclonal antibody was obtained from The Binding Site Limited of Birmingham, England.
In this example, antibody binding of the hematin-antigen conjugate is shown to prevent apo-enzyme reactivation (Table 4). The data set out in Table 4 were generated by using the HEMASTIX® formula with lepidine but lacking apo-peroxidase, antigen-hematin antigen and antibody. The later were mixed in solution and reagent strips with the modified HEMASTIX® formula were immediately dipped into the solution and read using a CLINITEK™-200+ reflectance spectrometer.

apo-POD [5] = molecular target: T1, apo-POD; assay: Detection limit study: peroxidase activity / apo-POD reactivation read with HEMASTIX reagent (Example I); type: biochemical, horse radish; settings: 1 minute @ 30° C.
apo-Hb = molecular target: T3, apo-Hb (Homo sapiens, UniProt P68871+P69905); assay: Metal porphyrin study: reactivation of apo-hemoglobin (Example IV); type: biochemical; settings: 12 μM apo-Hb, 12 μM metal porphyrin, HEMASTIX no lepidine/pH 7.5
T3 construct: made in house
Procedure: as §1
A 0.7% solution of hemoglobin was lowered to pH 1.5 and the resulting solution was ultrafiltered through a 10 KDa cutoff membrane followed by several changes of water. Filtered material was reconstituted into water. The apo-hemoglobin passed […]. […] It produced a HEMASTIX® result of +++++ indicating a high concentration of hemoglobin.

Apoglucose oxidase = settings: apoglucose oxidase and FAD; U.S. Pat. No. 4,493,890; read-out: binding constant; cited from earlier work
[6] = 3.6 nM, antigen IgG, hematin, antigen-hematin or apo-POD alone (Cases A, B, E)
[7] = (3.6 nM; antigen Sulfmethazine), hematin, antigen-hematin or apo-POD alone (Cases A, B, E)
[8] = (3.6 mM; antigen BJP), hematin, antigen-hematin or apo-POD alone (Cases A, B, E)

T3 sequence (P69905 2-142 limits assumed): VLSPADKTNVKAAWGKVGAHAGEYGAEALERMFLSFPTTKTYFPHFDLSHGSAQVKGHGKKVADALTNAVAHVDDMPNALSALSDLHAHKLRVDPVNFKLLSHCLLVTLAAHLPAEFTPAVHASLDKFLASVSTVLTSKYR
T3 sequence (P68871 2-147 limits assumed): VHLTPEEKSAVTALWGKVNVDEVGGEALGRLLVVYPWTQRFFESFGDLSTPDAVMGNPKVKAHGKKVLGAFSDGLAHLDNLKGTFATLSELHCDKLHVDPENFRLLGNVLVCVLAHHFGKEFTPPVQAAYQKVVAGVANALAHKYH

CC1=Cc2cc3[n-]c(cc4nc(cc5[n-]c(cc1n2)cc5C)C(C)=C4CCC(=O)O)c(CCC(=O)O)c3C.[Zn+2] [Zn deuteroporphyrin]
% R @ 90 second read time on CLINITEK-200+, mean (apo-POD [1]; 120 μM metal porphyrin): 70.7 % R | % R @ 90 second read time on CLINITEK-200+, mean ([2]; 120 μM metal porphyrin): 71.3 % R

hemoglobin: interfering substance, 0.81 mg/dL
interference with peroxidase detecting reagent (in words) (apo-POD [3]): causes a false positive response

C=CC1=C(C)c2cc3[n-]c(cc4[n-]c(cc5nc(cc1n2)C(C)=C5C=C)c(C)c4CCC(=O)O)c(CCC(=O)O)c3C.O.[Fe+2] [hematin]
peroxidase activity (in words) (apo-POD [4]; in the presence of apo-POD): detectable at 3.6 nM | peroxidase activity (in words) (apo-POD [4]; without partner): not detectable | response of HEMASTIX reagent, % reflectance (apo-peroxidase): 65.7 % reflectance | Mean % Reflectance @ 660 nm (apo-POD [5]; [6]): 64.9% | Mean % Reflectance @ 660 nm (apo-POD [5]; 3.6 nM, antigen IgG, with apo-POD (Cases C, D)): 46.3% | Mean % Reflectance @ 660 nm (apo-POD [5]; [7]): 63.4% | Mean % Reflectance @ 660 nm (apo-POD [5]; (3.6 nM; antigen Sulfmethazine), with apo-POD (Cases C, D)): 48.9% | Mean % Reflectance @ 660 nm (apo-POD [5]; [8]): 65.1% | Mean % Reflectance @ 660 nm (apo-POD [5]; (3.6 mM; antigen BJP), with apo-POD (Cases C, D)): 55.3%

CC1=Cc2cc3[n-]c(cc4nc(cc5[n-]c(cc1n2)cc5C)C(C)=C4CCC(=O)O)c(CCC(=O)O)c3C.[Cu+2] [Cu deuteroporphyrin]
% R @ 90 second read time on CLINITEK-200+, mean (apo-POD [1]; 120 μM metal porphyrin): 57.2 % R | response / activity with apo-peroxidase (in words) (apo-POD [1]; metal porphyrin study): responses similar to those obtained for Fe | % R @ 90 second read time on CLINITEK-200+, mean ([2]; 120 μM metal porphyrin): 73.7 % R

CC1=Cc2cc3[n-]c(cc4nc(cc5[n-]c(cc1n2)cc5C)C(C)=C4CCC(=O)O)c(CCC(=O)O)c3C.[Mg+2] [Mg deuteroporphyrin]
% R @ 90 second read time on CLINITEK-200+, mean (apo-POD [1]; 120 μM metal porphyrin): 70.9 % R | % R @ 90 second read time on CLINITEK-200+, mean ([2]; 120 μM metal porphyrin): 74.4 % R

CC1=Cc2cc3[n-]c(cc4nc(cc5[n-]c(cc1n2)cc5C)C(C)=C4CCC(=O)O)c(CCC(=O)O)c3C.[Fe+2] [Fe deuteroporphyrin]
% R @ 90 second read time on CLINITEK-200+, mean (apo-POD [1]; 12 μM metal porphyrin): 56.1 % R | % R @ 90 second read time on CLINITEK-200+, mean (apo-Hb): 49.2 % R | % R @ 90 second read time on CLINITEK-200+, mean ([2]; 12 μM metal porphyrin): 72.2 % R

apo-POD: Apo-horse radish peroxidase obtained from Sigma Chemical Company
peroxidase activity (in words) (apo-POD [4]; without partner): no activity by itself | time to complete reactivation (apo-POD [4]; 20-40° C.): 1 min | Mean % Reflectance @ 660 nm (apo-POD [5]; [6]): 62.3% | Mean % Reflectance @ 660 nm (apo-POD [5]; [7]): 61.2% | Mean % Reflectance @ 660 nm (apo-POD [5]; [8]): 64.1%

Cc1cc2nc3c(=O)[nH]c(=O)nc-3n(C[C@H](O)[C@H](O)[C@H](O)COP(=O)(O)OP(=O)(O)OC[C@H]3O[C@@H](n4cnc5c(N)ncnc54)[C@H](O)[C@@H]3O)c2cc1C [FAD, flavin adenine dinucleotide]
pKd (Apoglucose oxidase): ~10.00
